Experimental data from publication PMC6143434 (Molecular neurobiology, 2018).
“And” between values parts separate entries of the source, which are not always exact repeats. Equal entries are not always repeated. Structures can show the parent of a compound that is named as a salt. Where two headings read alike, the source gives them in different places.

Columns and labels:
α2A adrenoceptor [1] = molecular target: T1, α2A adrenoceptor (Homo sapiens, UniProt P08913); assay: ERK1/2 phosphorylation in CHO cells transfected with α2A-RLuc8 receptor; type: cell-based; settings: 5 minutes; for MAPK activation (ERK1/2 phosphorylation): 1 μM
T1 sequence (P08913 1-465): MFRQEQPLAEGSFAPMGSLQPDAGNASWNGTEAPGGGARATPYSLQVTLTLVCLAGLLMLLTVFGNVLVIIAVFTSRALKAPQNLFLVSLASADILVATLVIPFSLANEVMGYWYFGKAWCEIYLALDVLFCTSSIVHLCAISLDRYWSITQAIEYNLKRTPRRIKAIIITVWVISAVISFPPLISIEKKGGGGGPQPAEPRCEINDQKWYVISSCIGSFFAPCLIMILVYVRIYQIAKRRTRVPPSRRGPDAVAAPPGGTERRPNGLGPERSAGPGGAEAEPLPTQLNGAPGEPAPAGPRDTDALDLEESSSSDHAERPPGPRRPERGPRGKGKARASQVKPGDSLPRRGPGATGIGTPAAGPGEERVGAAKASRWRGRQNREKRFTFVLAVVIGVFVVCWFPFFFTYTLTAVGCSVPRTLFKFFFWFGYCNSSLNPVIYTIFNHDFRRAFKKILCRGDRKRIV

α2C adrenoceptor [2] = molecular target: T2, α2C adrenoceptor (Homo sapiens, UniProt P18825); assay: G protein activation BRET assay in transfected HEK-293T cells; type: cell-based
T2 sequence (P18825 1-462): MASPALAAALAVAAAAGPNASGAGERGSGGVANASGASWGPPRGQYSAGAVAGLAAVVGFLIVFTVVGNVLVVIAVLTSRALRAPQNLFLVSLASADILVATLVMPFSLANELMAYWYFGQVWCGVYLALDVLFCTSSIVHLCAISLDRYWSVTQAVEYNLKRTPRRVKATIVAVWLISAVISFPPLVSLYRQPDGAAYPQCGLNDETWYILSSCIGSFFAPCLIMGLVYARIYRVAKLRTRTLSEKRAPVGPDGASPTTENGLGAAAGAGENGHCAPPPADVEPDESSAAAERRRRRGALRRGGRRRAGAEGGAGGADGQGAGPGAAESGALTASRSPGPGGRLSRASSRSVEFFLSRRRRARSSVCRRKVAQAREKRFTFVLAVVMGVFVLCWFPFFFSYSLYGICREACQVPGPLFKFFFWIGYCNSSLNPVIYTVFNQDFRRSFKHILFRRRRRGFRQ

[3] = molecular target: α2 adrenoceptors (striatum, α2A and α2C); assay: [3H]RX821002 binding; design: species or system sheep
α2A adrenoceptor [4] = molecular target: T1, α2A adrenoceptor; assay: G protein activation BRET assay in transfected HEK-293T cells; type: cell-based; settings: for EC50: read-out: Potency (EC50) G protein activation
[5] = molecular target: α2 adrenoceptors (cortex, mostly α2A) (Ovis aries, UniProt A0ACI6PY47); assay: [3H]RX821002 binding; design: species or system sheep
α2A adrenoceptor [6] = molecular target: T1, α2A adrenoceptor; assay: DMR label-free assay in CHO cells transfected with α2A-RLuc8 receptor; type: cell-based; settings: for DMR response: at 300 nM, Fig. 6 legend: 100 nM
D2-like receptor D2L = settings: read-out: EC50 values, G protein activation, across Gi/o protein subtypes; cited from earlier work
α2A adrenoceptor [7] = molecular target: T1, α2A adrenoceptor
α2C adrenoceptor [8] = molecular target: T2, α2C adrenoceptor; assay: cell-based
α2C adrenoceptor [9] = molecular target: T2, α2C adrenoceptor
human D3 receptor = human D3 receptor (Homo sapiens, UniProt P35462); type: binding; settings: HEK-293T membranes, up to 10 μM; data not shown
human D2 receptor = human D2 receptor (Homo sapiens, UniProt P14416); type: binding; settings: HEK-293T membranes, up to 10 μM; data not shown
human D4 receptor = molecular target: T3, human D4 receptor (Homo sapiens, UniProt P21917); type: binding; settings: HEK-293T membranes, up to 10 μM; data not shown
T3 sequence (P21917 1-419): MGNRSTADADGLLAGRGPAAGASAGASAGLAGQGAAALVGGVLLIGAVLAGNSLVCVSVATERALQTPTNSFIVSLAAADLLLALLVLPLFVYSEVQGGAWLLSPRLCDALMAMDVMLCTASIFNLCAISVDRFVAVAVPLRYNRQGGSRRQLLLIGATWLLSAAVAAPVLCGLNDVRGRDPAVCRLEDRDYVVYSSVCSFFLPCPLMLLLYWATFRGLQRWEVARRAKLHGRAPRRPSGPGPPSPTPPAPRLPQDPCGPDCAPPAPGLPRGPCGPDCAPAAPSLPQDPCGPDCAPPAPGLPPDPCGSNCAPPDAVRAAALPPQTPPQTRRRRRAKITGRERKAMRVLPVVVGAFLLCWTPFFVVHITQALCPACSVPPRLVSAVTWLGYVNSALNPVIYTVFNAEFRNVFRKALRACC

D2-like receptors = D2-like receptors (Ovis aries, UniProt A0ACI6R699); assay: [3H]YM-09151-2 competition binding, sheep brain striatum; settings: sheep striatal membranes; any concentration up to 10 μM
[10] = read-out: KDB1, striatum, vs [3H]RX821002, two-state dimer model, first protomer
[11] = read-out: KDB1, cortex, vs [3H]RX821002, two-state dimer model, first protomer
[12] = read-out: KDB2, cortex, vs [3H]RX821002, two-state dimer model, second protomer
[13] = read-out: KDB2, striatum, vs [3H]RX821002, two-state dimer model, second protomer

Sequence of human D2 receptor (P14416 whole entry): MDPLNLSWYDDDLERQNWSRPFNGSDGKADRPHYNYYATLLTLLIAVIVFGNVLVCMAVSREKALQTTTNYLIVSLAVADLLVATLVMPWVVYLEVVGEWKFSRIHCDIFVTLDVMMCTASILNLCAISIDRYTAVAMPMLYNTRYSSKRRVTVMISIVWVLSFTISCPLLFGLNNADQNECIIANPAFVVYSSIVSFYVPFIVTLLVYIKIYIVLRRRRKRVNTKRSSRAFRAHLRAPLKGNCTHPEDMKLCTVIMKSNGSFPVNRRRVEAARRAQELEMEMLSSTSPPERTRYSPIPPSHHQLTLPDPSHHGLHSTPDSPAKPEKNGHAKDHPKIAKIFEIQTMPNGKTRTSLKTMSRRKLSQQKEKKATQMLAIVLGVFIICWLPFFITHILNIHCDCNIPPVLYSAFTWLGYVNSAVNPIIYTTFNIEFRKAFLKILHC
Sequence of human D3 receptor (P35462 whole entry): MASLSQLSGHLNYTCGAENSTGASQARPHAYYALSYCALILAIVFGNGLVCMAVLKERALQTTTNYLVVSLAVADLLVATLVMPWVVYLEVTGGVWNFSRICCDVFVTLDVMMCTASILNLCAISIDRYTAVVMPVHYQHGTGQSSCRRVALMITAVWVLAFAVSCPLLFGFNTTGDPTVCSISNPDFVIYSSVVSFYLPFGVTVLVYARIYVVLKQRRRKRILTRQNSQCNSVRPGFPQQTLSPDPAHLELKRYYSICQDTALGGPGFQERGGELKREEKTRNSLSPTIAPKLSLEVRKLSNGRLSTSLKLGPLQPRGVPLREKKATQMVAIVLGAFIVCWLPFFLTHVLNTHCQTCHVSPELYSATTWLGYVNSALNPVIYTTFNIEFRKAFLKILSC

Compound: CCCN(C/C=C/I)C1CCc2ccc(O)cc2C1 (stereo not shown) [7-OH-PIPAT, 7-OH-PIPAT maleate]
- MAPK activation (ERK1/2 phosphorylation) (α2A adrenoceptor [1]): able to produce MAPK activation
- Efficacy (Emax) G protein activation (α2C adrenoceptor [2]; Gαi1, α2C, ND: not detectable): 41 ± 1 percentage of NE values
- Efficacy (Emax) G protein activation (α2C adrenoceptor [2]; Gαi2, α2C): 90 ± 20 percentage of NE values
- Efficacy (Emax) G protein activation (α2C adrenoceptor [2]; Gαi3, α2C): 90 ± 10 percentage of NE values
- Efficacy (Emax) G protein activation (α2C adrenoceptor [2]; Gαo1, α2C): 98 ± 7 percentage of NE values
- Efficacy (Emax) G protein activation (α2C adrenoceptor [2]; Gαo2, α2C): 106 ± 3 percentage of NE values
- EC50 (α2C adrenoceptor [2]; read-out: Potency (EC50) G protein activation, Gαi3, α2C): 5 ± 3 nM
- Kd [3, 10]: 51 nM
- Efficacy (Emax) G protein activation (α2A adrenoceptor [4]; Gαi1, α2A): 94 ± 6 percentage of NE values
- Efficacy (Emax) G protein activation (α2A adrenoceptor [4]; Gαi2, α2A): 55 ± 2 percentage of NE values
- Efficacy (Emax) G protein activation (α2A adrenoceptor [4]; Gαi3, α2A): 71 ± 6 percentage of NE values
- Efficacy (Emax) G protein activation (α2A adrenoceptor [4]; Gαo1, α2A): 81 ± 9 percentage of NE values
- Efficacy (Emax) G protein activation (α2A adrenoceptor [4]; Gαo2, α2A): 85 ± 4 percentage of NE values
- EC50 (α2A adrenoceptor [4]; Gαo1, α2A): 100 ± 20 nM
- EC50 (α2A adrenoceptor [4]; Gαo2, α2A): 66 ± 7 nM
- DCB (cooperativity index) ([5]; cortex, vs [3H]RX821002): DCB: -1.1
- Kd [5, 11]: 9 nM
- Kd [5, 12]: 430 nM
- DMR response (α2A adrenoceptor [6]): significant response

Compound: CC1c2ccccc2CN1CC1=NCCN1 (stereo not shown) [BRL 44408]
- effect on DA and NE activation of DMR (α2A adrenoceptor [6]; BRL 44408 1 μM, 30 minutes pretreatment): decreased

Compound: Clc1cccc(Cl)c1N=C1NCCN1 [Clonidine, clonidine hydrochloride]
- Kd [3, 10]: 0.036 nM
- Kd [3, 13]: 20 nM
- Efficacy (Emax) G protein activation (α2A adrenoceptor [4]): 110 ± 10 percentage of NE values and 120 ± 2 percentage of NE values and 120 ± 5 percentage of NE values and 89 ± 6 percentage of NE values and 112 ± 8 percentage of NE values

Compound: NCCc1ccc(O)c(O)c1 [DA, Dopamine hydrochloride]
- EC50 (D2-like receptor D2L): 130 to 400 nM
- Kd [3, 10]: 6 nM
- Kd [3, 13]: 1000 nM

Compound: NC[C@H](O)c1ccc(O)c(O)c1 [NE, L-(-)-norepinephrine (+)-bitartrate salt monohydrate]
- Gs activation (inverted U-shaped curve, high ligand concentrations) (α2A adrenoceptor [7]; at 10 and 100 μM): promoted Gs activation
- increase of ERK1/2 phosphorylation levels (α2A adrenoceptor [1]; 300 nM): 3 fold over basal
- Efficacy (Emax) G protein activation (α2C adrenoceptor [2]; Gαi1, α2C, ND: not detectable): 100 ± 2 percentage of NE values
- Efficacy (Emax) G protein activation (α2C adrenoceptor [2]; Gαi2, α2C): 100 ± 7 percentage of NE values
- Efficacy (Emax) G protein activation (α2C adrenoceptor [2]; Gαi3, α2C): 100 ± 9 percentage of NE values
- Efficacy (Emax) G protein activation (α2C adrenoceptor [2]; Gαo1, α2C): 100 ± 10 percentage of NE values
- Efficacy (Emax) G protein activation (α2C adrenoceptor [2]; Gαo2, α2C): 100 ± 8 percentage of NE values
- EC50 (α2C adrenoceptor [2]; Potency (EC50) G protein activation, Gαi3, α2C): 0.4 ± 0.2 nM
- Efficacy (Emax) G protein activation (α2A adrenoceptor [4]; Gαi1, α2A): 100 ± 5 percentage of NE values
- Efficacy (Emax) G protein activation (α2A adrenoceptor [4]; Gαi2, α2A): 100 ± 10 percentage of NE values
- Efficacy (Emax) G protein activation (α2A adrenoceptor [4]; Gαi3, α2A): 100 ± 10 percentage of NE values
- Efficacy (Emax) G protein activation (α2A adrenoceptor [4]; Gαo1, α2A): 100 ± 7 percentage of NE values
- Efficacy (Emax) G protein activation (α2A adrenoceptor [4]; Gαo2, α2A): 100 ± 9 percentage of NE values
- EC50 (α2C adrenoceptor [8]): 7 ± 4 nM
- Gs activation (inverted U-shaped curve, high ligand concentrations) (α2C adrenoceptor [9]; at 10 and 100 μM): promoted Gs activation

Compound: Cc1ncc(CN2CC=C(c3ccccc3)CC2)c(N)n1.Cl.Cl [RO-105824, RO-105824 dihydrochloride]
- MAPK activation (ERK1/2 phosphorylation) (α2A adrenoceptor [1]): able to produce MAPK activation
- inhibition of the agonistic effect of clonidine (1 μM) (α2C adrenoceptor [2]; α2C, Gαo1): did counteract
- G protein activation (agonist effect) (α2C adrenoceptor [2]; α2C, any of the Gαi/o subtypes): did not produce a significant activation
- Kd [3, 10]: 0.42 nM
- G protein activation (agonist effect) (α2A adrenoceptor [4]; α2A, Gαi2 and Gαi3): small efficacy
- G protein activation (agonist effect) (α2A adrenoceptor [4]; α2A, Gαi/o subtypes other than Gαi2 and Gαi3): did not produce a significant activation
- inhibition of the agonistic effect of clonidine (1 μM) (α2A adrenoceptor [4]; α2A, Gαo1): did counteract
- Kd [5, 11]: 0.055 nM
- Kd [5, 12]: 4000 nM
- DMR response (α2A adrenoceptor [6]): substantially lower

Compound: COC1(C2=NCCN2)COc2ccccc2O1 (stereo not shown) [RX821002]
- displacement of [3H]YM-09151-2 binding (human D3 receptor): identical results
- displacement of [3H]YM-09151-2 binding (human D2 receptor): identical results
- displacement of [3H]YM-09151-2 binding (human D4 receptor): identical results
- displacement of [3H]YM-09151-2 binding (D2-like receptors): did not displace

Compound: COC1(C2=NCCN2)COc2ccccc2O1 (stereo not shown) [[^3H]RX821002]
- Kd ([3]; read-out: affinity value (KDA1) of the radioligand, saturation experiments, striatal tissue, n=4-8): 0.07 ± 0.01 nM
- Kd ([5]; read-out: affinity value (KDA1) of the radioligand, saturation experiments, cortical tissue, n=4-8): 0.06 ± 0.01 nM

Compound: COC(=O)[C@@H]1[C@H]2C[C@H]3c4[nH]c5ccccc5c4CCN3C[C@@H]2CC[C@@H]1O [yohimbine, yohimbine hydrochloride]
- blockade of Gi/o-dependent effects of NE and DA on adenylyl cyclase (α2A adrenoceptor [7]; yohimbine 10 μM): blocked
- blockade of Gαo1 activation induced by 10 μM 7-OH-PIPAT or 10 μM quinpirole (α2C adrenoceptor [2]): completely blocked
- blockade of Gαo1 activation induced by 10 μM 7-OH-PIPAT or 10 μM quinpirole (α2A adrenoceptor [4]): completely blocked
- blockade of Gi/o-dependent effects of NE and DA on adenylyl cyclase (α2C adrenoceptor [9]; yohimbine 10 μM): blocked
